In patent US8710180B2, “VEGF-specific capture agents, compositions, and methods of using and making” (Indi Molecular, Inc., priority 2011, dated 2014):
Several values for one entry are separate records, joined by “and”; a condition that tells them apart may be missing. Equal entries are not always repeated. Where two headings read alike, the source gives them in different places. Where a SMILES comes first, the peptide text is derived from it. Bridges are numbered along the chain shown (N, C = ends). Roman numbers before positions name the chains, in order. Triazole bridges read from a SMILES are 1,4-linked. [ ]: non-standard residue; d: D form. Lys(N3) = [N-]=[N+]=NCCCC[C@H](N)C(=O)O; Az4 = C-terminal azide group; dPra = C#CC[C@@H](N)C(=O)O; code X = not defined here

Experiments:
[1] = target: T1, human VEGF165 binding to VEGFR2 (KDR) (Homo sapiens, UniProt P15692); assay: competitive ELISA, inhibition of VEGF165 binding to VEGFR2; conditions: concentrations tested <50 μM
T1 construct: biotin (chemical labelling, Sulfo-NHS-LC-biotin); purchased R&D Systems (partner VEGFR2-Fc only)
T1 sequence (P15692 27-191 isoform P15692-4): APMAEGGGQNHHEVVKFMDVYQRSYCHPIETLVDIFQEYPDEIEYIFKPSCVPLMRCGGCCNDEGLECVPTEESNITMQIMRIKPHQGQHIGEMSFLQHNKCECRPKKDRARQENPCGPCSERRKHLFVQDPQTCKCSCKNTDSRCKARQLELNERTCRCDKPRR
Protocol: The solutions from the tubes were then transferred to the ELISA plates and incubated for 5 minutes. […] Using an excitation wavelength of 535 nm, fluorescent emission at 595 nm was recorded by Beckman Coulter DTX880 photometer (Brea, Calif.) as a function of capture agent concentration. The titration curves were fit using a four-parameter regression curve fitting program (Origin 8.5, Northampton, Mass.). Concentrations of peptides corresponding to the midpoint absorbance of the titration curve were calculated and used as the IC50 values.

[2] = plasma protein binding by equilibrium dialysis; type: in vitro ADME; conditions: 10 μM, 37° C. overnight
Protocol: Equilibrium dialysis techniques were used to separate the fraction of unbound test compound from the fraction that is bound to protein.
Assays were carried out in a 96-well format in a dialysis block constructed from Teflon. The protein matrix was spiked with the test compound at 10 μM (n=2) with a final DMSO concentration of 1% (v/v). The dialysate compartment was loaded with 150 μL phosphate buffer (pH 7.5) and the sample side was loaded with equal volume of the spiked protein matrix. The dialysis plate was then sealed and incubated at 37° C. overnight (18±2 hours). After the incubation, samples were taken from each compartment, diluted with the phosphate buffer followed by addition of acetonitrile and centrifugation. The supernatants were then used for HPLC-MS/MS analysis. A control sample (n=2) was prepared from the spiked protein matrix in the same manner as the assay samples (without dialysis). This control sample served as the basis for the recovery determination. Samples were analyzed by HPLC-MS/MS using selected reaction monitoring. The HPLC conditions consisted of a binary LC pump with autosampler, a C18 column (2×20 mm), and gradient elution. The percent bound to proteins and the recovery were calculated as follows:
[formula] […] The recovery determination served as an indicator of reliability of the calculated protein binding value.

[3] = test system: Human umbilical vein endothelial cells (HUVECs); assay: inhibition of HUVEC proliferation; type: cell-based; conditions: 48 h, read-out: IC50 (antagonist)
Protocol: HUVECs were cultured in M199 medium (pH 7.4) in 5% CO2 at 37° C. for 18 hours. Test compound and/or vehicle were incubated with cells (1.1×10^5/mL) in the presence of heparin (10 μg/mL) and 0.5% FBS at 37° C. for 48 hours. Capture agents were screened at 10, 1, 0.1, 0.01 and 0.001 μM and in duplicate. […] Subsequently, the reagent Calcein AM dye (20 μg/ml) was added for an additional 50 minute incubation period. Fluorescence intensity was read on SpectroFluor Plus plate reader.

[4] = plasma concentrations and pharmacokinetics of VEGF-PCC after a single IV or IP dose in mice, LC-MS/MS; type: in vivo, mouse; conditions: for Plasma concentration: individual animal; for C0: iv
Excerpt: Test article: VEGF-PCC (IN-VT-1001 Triligand) (PCC monomer) Ac-[…]-Tz4-lfrew-Tz4-eeird (SEQ ID NO: 71). The underlined region inclusive of the Cys residues is cyclized by a disulfide bond, Ac=N-terminal acetylation, and Tz4=1,4-disubstituted 1,2,3-triazole.
The LC-MS/MS system for analysis was comprised of an Agilent 1200 high performance liquid chromatography (HPLC) and a 5500 Qtrap mass spectrometer (Applied Biosystems by Life Technologies, Carlsbad, Calif.).
Concentrations of VEGF-PCC in mouse plasma were determined using a non-validated LC MS/MS assay with Angiotensin I as the internal standard following a solid phase extraction method. Individual VEGF-PCC calibration and QC standards were prepared from the respective intermediate stock solutions by addition to naïve mouse plasma. The target working range of the calibration curve was 50 to 5,000 ng/mL in plasma and the target concentrations of the QC standards were 150 to 3,750 ng/mL in plasma for VEGF-PCC.
Mice received a single IV dose of VEGF-PCC at 1 mg/kg. A summary of the plasma concentrations for individual animals is shown in Table A. Plasma pharmacokinetic parameters are listed in Table 9.
Mice received a single IP dose of VEGF-PCC at 5 mg/kg. A summary of the plasma concentrations for individual animals is shown in Table B. Plasma pharmacokinetic parameters are listed in Table 9.

[5] = in vivo, mouse plasma, IP, 5 mg/kg
[6] = in vivo, mouse plasma, IV, 1 mg/kg

X-VEPNCDIHVMWEWECFERL-Az4 ({code X}-VEPNCDIHVMWEWECFERL-Az4; cysteine pairing not given here; reading uncertain) [anchor, reference compound]
blocking of receptor binding at the concentrations tested [1]: Neither the anchor nor Biligand 2 blocked receptor binding

C=C(NC(=O)[C@@H]1CCCN1C(=O)[C@H](CCC(=O)O)NC(=O)[C@@H](C)C(C)C)C(=O)N[C@@H]1CSSCC(C(=O)N[C@@H](Cc2ccccc2)C(=O)NC(CCC(=O)O)C(=O)NC(CCCN)C(=O)N[C@@H](CC(C)C)C(=O)NC(CCCCn2cc(CC(N)C(=O)NC(Cc3ccccc3)C(=O)N[C@H](CO)C(=O)N[C@H](CCCNC(=N)N)C(=O)NC(CCCCN)C(=O)N[C@@H](C(=O)NC(CCC(=O)O)C(N)=O)C(C)O)nn2)C(=O)O)NC(=O)[C@H](CCC(=O)O)NC(=O)[C@H](Cc2c[nH]c3ccccc23)NC(=O)[C@H](CCC(=O)O)NC(=O)[C@H](Cc2c[nH]c3ccccc23)NC(=O)[C@H](CCSC)NC(=O)[C@H](C(C)C)NC(=O)[C@H](Cc2cnc[nH]2)NC(=O)C([C@@H](C)CC)NC(=O)[C@H](CC(=O)O)NC1=O (stereo partly shown) [Biligand 3]
plasma protein binding [2]: higher levels of plasma protein binding

Cc1cc(C)c(/C=C2\C(=O)Nc3ccccc32)[nH]1 [SU5416]
IC50 [3]: 48 nM

CC[C@@H](C)[C@@H](NC(=O)[C@@H](CCC(=O)O)NC(=O)[C@@H](CCC(=O)O)NC(=O)[C@H](N)Cc1cn(CCCC[C@H](NC(=O)[C@@H](Cc2c[nH]c3ccccc23)NC(=O)[C@@H](CCC(=O)O)NC(=O)[C@@H](CCCNC(=N)N)NC(=O)[C@@H](Cc2ccccc2)NC(=O)[C@@H](CC(C)C)NC(=O)[C@H](N)Cc2cn(CCCC[C@H](NC(=O)[C@H](CC(C)C)NC(=O)[C@H](CCCNC(=N)N)NC(=O)[C@H](CCC(=O)O)NC(=O)[C@H](Cc3ccccc3)NC(=O)[C@@H]3CSSC[C@H](NC(=O)[C@H](CC(N)=O)NC(=O)[C@@H]4CCCN4C(=O)[C@H](CCC(=O)O)NC(=O)[C@@H](NC(C)=O)C(C)C)C(=O)N[C@@H](CC(=O)O)C(=O)N[C@@H]([C@@H](C)CC)C(=O)N[C@@H](Cc4c[nH]cn4)C(=O)N[C@@H](C(C)C)C(=O)N[C@@H](CCSC)C(=O)N[C@@H](Cc4c[nH]c5ccccc45)C(=O)N[C@@H](CCC(=O)O)C(=O)N[C@@H](Cc4c[nH]c5ccccc45)C(=O)N[C@@H](CCC(=O)O)C(=O)N3)C(=O)O)nn2)C(=O)O)nn1)C(=O)N[C@H](CCCNC(=N)N)C(=O)N[C@H](CC(=O)O)C(N)=O [VEGF-PCC] (I: Ac-VEPNCDIHVMWEWECFERL[Lys(N3)]-OH / II: H-[dPra][dL][dF][dR][dE][dW][Lys(N3)]-OH / III: H-[dPra][dE][dE][dI][dR][dD]-NH2; disulfide I:5-I:15; triazole I:20-II:1, II:7-III:1)
AUC(0-inf) [4, 5]: 32200 ng·h/mL
AUC(0-t) [4, 5]: 31500 ng·h/mL
Cmax [4, 5]: 19800 ng/mL
Tmax [4, 5]: 30 min
AUC(0-inf) [4, 6]: 6490 ng·h/mL
AUC(0-t) [4, 6]: 6070 ng·h/mL
clearance [4, 6]: 2.57 mL/min/kg
half-life [4, 6]: 35.9 min
Vd ([4]; in vivo, mouse plasma, IV, 1 mg/kg, read-out: Vss): 0.0967 L/kg
Plasma concentration ([4]; IP 5 mg/kg, 10 minutes postdose, listed as IN-VT-1001, 5 mg/kg): 17500 ng/mL and 17000 ng/mL and 13400 ng/mL
Plasma concentration ([4]; IP 5 mg/kg, 30 minutes postdose, listed as IN-VT-1001, 5 mg/kg): 19400 ng/mL and 20200 ng/mL and BLQ
Plasma concentration ([4]; IP 5 mg/kg, 60 minutes postdose, listed as IN-VT-1001, 5 mg/kg): 10800 ng/mL and 23900 ng/mL and 11500 ng/mL
Plasma concentration ([4]; IP 5 mg/kg, 120 minutes postdose, listed as IN-VT-1001, 5 mg/kg): BLQ and 4730 ng/mL and 3640 ng/mL
Plasma concentration ([4]; IP 5 mg/kg, 240 minutes postdose, listed as IN-VT-1001, 5 mg/kg): 259 ng/mL and 807 ng/mL and BLQ
Plasma concentration ([4]; IP 5 mg/kg, 360 minutes postdose, listed as IN-VT-1001, 5 mg/kg): 390 ng/mL and BLQ (2×)
Plasma concentration ([4]; IP 5 mg/kg, 480 minutes postdose): BLQ
Plasma concentration ([4]; IP 5 mg/kg, 1440 minutes postdose): BLQ
Plasma concentration ([4]; IV 1 mg/kg, 3 minutes postdose, listed as IN-VT-1001, 1 mg/kg): 14200 ng/mL and 16200 ng/mL and 12000 ng/mL
Plasma concentration ([4]; IV 1 mg/kg, 10 minutes postdose, listed as IN-VT-1001, 1 mg/kg): 7220 ng/mL and 7550 ng/mL and 6110 ng/mL
Plasma concentration ([4]; IV 1 mg/kg, 30 minutes postdose, listed as IN-VT-1001, 1 mg/kg): 2170 ng/mL and 2210 ng/mL and 3420 ng/mL
Plasma concentration ([4]; IV 1 mg/kg, 60 minutes postdose, listed as IN-VT-1001, 1 mg/kg): 1840 ng/mL and 2380 ng/mL and 1870 ng/mL
Plasma concentration ([4]; IV 1 mg/kg, 120 minutes postdose, listed as IN-VT-1001, 1 mg/kg): 551 ng/mL and 400 ng/mL and 514 ng/mL
Plasma concentration ([4]; IV 1 mg/kg, 240 minutes postdose): BLQ
Plasma concentration ([4]; IV 1 mg/kg, 360 minutes postdose): BLQ
Plasma concentration ([4]; IV 1 mg/kg, 1440 minutes postdose): BLQ
Mean plasma concentration ([4]; mean, IP 5 mg/kg, 480 minutes postdose): 0.00 ng/mL
Mean plasma concentration ([4]; mean, IP 5 mg/kg, 1440 minutes postdose): 0.00 ng/mL
Mean plasma concentration ([4]; mean, IV 1 mg/kg, 240 minutes postdose): 0.00 ng/mL
Mean plasma concentration ([4]; mean, IV 1 mg/kg, 360 minutes postdose): 0.00 ng/mL
Mean plasma concentration ([4]; mean, IV 1 mg/kg, 1440 minutes postdose): 0.00 ng/mL
AUC % Ext ([4]; mouse plasma, IP, 5 mg/kg): 2.04%
AUC % Ext ([4]; mouse plasma, IV, 1 mg/kg): 6.49%
bioavailability ([4]; mouse, in vivo, ip, 5 mg/kg, mouse plasma, IP, 5 mg/kg, read-out: F (relative bioavailability)): ~99%
C0 ([4]; mouse, in vivo, 1 mg/kg, assuming IV dose 1 mg/kg, body weight 33 g, blood volume approximately 1.7 mL, read-out: theoretical C0): ~19400 ng/mL
C0 ([4]; mouse, in vivo, 1 mg/kg, mouse plasma, IV, 1 mg/kg, read-out: C0 (back-calculated)): 19100 ng/mL
level at 10 min ([4]; mouse, plasma, mean, IP 5 mg/kg, 10 minutes postdose, read-out: Mean plasma concentration): 16000 ng/mL
level at 0.5 h ([4]; mouse, plasma, mean, IP 5 mg/kg, 30 minutes postdose, read-out: Mean plasma concentration): 13200 ng/mL
level at 1 h ([4]; mouse, plasma, mean, IP 5 mg/kg, 60 minutes postdose, read-out: Mean plasma concentration): 15400 ng/mL
level at 2 h ([4]; mouse, plasma, mean, IP 5 mg/kg, 120 minutes postdose, read-out: Mean plasma concentration): 2790 ng/mL
level at 4 h ([4]; mouse, plasma, mean, IP 5 mg/kg, 240 minutes postdose, read-out: Mean plasma concentration): 355 ng/mL
level at 6 h ([4]; mouse, plasma, mean, IP 5 mg/kg, 360 minutes postdose, read-out: Mean plasma concentration): 130 ng/mL
level at 0.05 h ([4]; mouse, plasma, mean, IV 1 mg/kg, 3 minutes postdose, read-out: Mean plasma concentration): 14100 ng/mL
level at 10 min ([4]; mouse, plasma, mean, IV 1 mg/kg, 10 minutes postdose, read-out: Mean plasma concentration): 6960 ng/mL
level at 0.5 h ([4]; mouse, plasma, mean, IV 1 mg/kg, 30 minutes postdose, read-out: Mean plasma concentration): 2600 ng/mL
level at 1 h ([4]; mouse, plasma, mean, IV 1 mg/kg, 60 minutes postdose, read-out: Mean plasma concentration): 2030 ng/mL
level at 2 h ([4]; mouse, plasma, mean, IV 1 mg/kg, 120 minutes postdose, read-out: Mean plasma concentration): 488 ng/mL
